What was measured:
MCT1 = MCT1 (Homo sapiens (Human), UniProt P53985); experiment: Assay 4: MCT1-mediated lactate transport in BT20 breast cancer cells; type: cell-based; conditions: lactate transport (Table 27)
Experimental: Preparing BCECF-Loaded Cells
10 µL of a 30 mM DMSO stock of BCECF-AM ester (Life Technologies) is added and the cells are incubated at 37° C. for 5 min. The cells are pelleted (300 g, 5 min), washed once with 1 mL Tyrode's Solution, pH 7.4, re-pelleted (300 g, 5 min), and resuspended in 1 mL Tyrode's Solution, pH 7.4.
Assay 4: MCT1-Mediated Lactate Transport in BT20 Breast Cancer Cells.
Preparation of BCECF loaded cells are as described for Assay 1. Lactate transport assay is as described for Assay 1, except 10 mM L-lactate (rather than 50 mM) is added.

[1] = Metabolic stability in rat liver microsomes (in vitro t1/2); type: in vitro ADME; conditions: rat liver microsomes 0.5 mg/mL, 2 μM compound, % remaining at 60 min
Experimental: (§1) Metabolic Stability Assays The following are assays that may be used to evaluate the metabolic stability of compounds of Formula (I) in human, rat, or mouse microsomes. The assays follow a common procedure recited below. 1. […] Two separated experiments were performed as follows. a) With NADPH: 10 μL of 20 mg/mL liver microsomes and 40 μL of 10 mM NADPH were added to the incubations. […] The final concentration of microsomes was 0.5 mg/mL. 3. The reaction was started with the addition of 4 μL of 200 μM control compound or test compound solutions. Verapamil was used as positive control in this study. The final concentration of test compound or control compound was 2 μM. 4. Aliquots of 50 μL were taken from the reaction solution at 0, 15, 30, 45 and 60 min. […] Samples were centrifuged at 3,220 g for 40 minutes. A 90 μL aliquot of the supernatant was mixed with 90 μL of ultra-pure H2O and then used for LC-MS/MS analysis. 5. Data analysis. All calculations were carried out using Microsoft Excel. Peak areas were determined from extracted ion chromatograms. The slope value, k, was determined by linear regression of the natural logarithm of the remaining percentage of the parent drug vs. incubation time curve. The in vitro half-life (in vitro t1/2) was determined from the slope value: in vitro t1/2=−(0.693)/k.

[2] = Pharmacokinetic assay in rat (IV 3 mg/kg, PO 10 mg/kg); type: in vivo; conditions: male, Sprague-Dawley, plasma, read-out: Rat F (%)
Excerpt: Pharmacokinetic Assays in Mouse and Rat
The following are assays that may be used to evaluate the pharmacokinetic properties of Formula (I) in mouse or rat. The assays follow a common procedure recited below.
1. […] For PO (oral gavage), DMSO/PEG400 (10:90). Formulations freshly prepared on the day of dosing or prior to dosing. Storage at room temperature.
2. Test Species: For Mouse: Male CD1 strain, approximately 6-8 weeks in age, approximately 20-30 g. For Rat: Male Sprague-Dawley strain, approximately 6-8 weeks in age, approximately 200-300 g.
3. Dose Level: For IV, 3 mg/kg. For PO, 10 mg/kg.
4. Number of animals: 3 per assay.
5. PK time points: For IV (plasma): 5 min, 15 min, 1, 2, 4, 6, 8, 24 h post dose. For PO (plasma): 15 min, 30 min, 1, 2, 4, 6, 8, 24 h post dose.
6. Blood Sample Collection and Processing. Blood was collected (˜0.2 mL per time point) from jugular vein. Blood of each sample was transferred into plastic micro centrifuge tubes containing anticoagulant of EDTA-K2. Blood samples were centrifuged at 2,000 g for 5 minutes at 4° C. to obtain plasma.
7. Samples Analysis: Plasma samples were analyzed using LC/MS/MS method, and pharmacokinetic parameters (half-life: t1/2; oral bioavailability: F; volume of distribution: Vss).

CFA-induced arthritis [3] = experiment: Adjuvant-induced arthritis model in rat: Difference of Weight Bearing test (DWB); type: in vivo; conditions: SD rat, PO 3 days post CFA, compared to dexamethasone
[4] = Metabolic stability in mouse liver microsomes (in vitro t1/2); type: in vitro ADME; conditions: mouse liver microsomes 0.5 mg/mL, 2 μM compound; for Mouse microsome % 60 min: % remaining at 60 min; for Mouse microsome t1/2, min: in vitro t1/2
Experimental: as §1

[5] = Metabolic stability in human liver microsomes (in vitro t1/2); type: in vitro ADME; conditions: human liver microsomes 0.5 mg/mL, 2 μM compound; for Human microsome % 60 min: % remaining at 60 min
Experimental: as §1

CFA-induced arthritis [6] = experiment: Adjuvant-induced arthritis model in rat: Mechanical Allodynia test (MA); type: in vivo; conditions: SD rat, PO 3 days post CFA, compared to dexamethasone

Sequence of MCT1 (P53985 whole entry): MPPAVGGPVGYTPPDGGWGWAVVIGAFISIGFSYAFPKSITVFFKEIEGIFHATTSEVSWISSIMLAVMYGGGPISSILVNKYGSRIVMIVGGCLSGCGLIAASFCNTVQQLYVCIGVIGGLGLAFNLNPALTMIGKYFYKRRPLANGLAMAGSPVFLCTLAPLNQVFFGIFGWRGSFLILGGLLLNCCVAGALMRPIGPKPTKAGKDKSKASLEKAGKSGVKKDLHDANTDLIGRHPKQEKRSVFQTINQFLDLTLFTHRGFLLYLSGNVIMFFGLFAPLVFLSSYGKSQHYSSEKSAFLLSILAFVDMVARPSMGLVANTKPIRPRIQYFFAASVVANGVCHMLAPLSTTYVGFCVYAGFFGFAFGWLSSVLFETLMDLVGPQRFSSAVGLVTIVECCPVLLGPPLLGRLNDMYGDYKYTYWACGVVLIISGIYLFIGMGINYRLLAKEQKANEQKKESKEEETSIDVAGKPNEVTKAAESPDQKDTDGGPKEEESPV
Sequence of MCT1 (P35613 140-385 partner): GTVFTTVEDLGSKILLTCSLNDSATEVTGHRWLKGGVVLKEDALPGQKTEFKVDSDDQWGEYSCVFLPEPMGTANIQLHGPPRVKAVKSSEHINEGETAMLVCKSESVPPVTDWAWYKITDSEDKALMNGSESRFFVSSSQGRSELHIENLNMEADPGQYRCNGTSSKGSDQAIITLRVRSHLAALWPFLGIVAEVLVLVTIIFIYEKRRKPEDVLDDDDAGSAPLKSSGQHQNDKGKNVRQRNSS

| SMILES | IC50 (MCT1) | Rat microsome % 60 min [1] | bioavailability [2] | Mouse microsome % 60 min [4] | Mouse microsome t1/2, min [4] | Human microsome % 60 min [5] | Human microsome t1/2, min ([5]; in vitro t1/2) | Difference in Weight Bearing, Minimal Efficacious Dose (CFA-induced arthritis [3]) | Mechanical Allodynia (Von Frey), Minimal Efficacious Dose (CFA-induced arthritis [6]) |
| --- | --- | --- | --- | --- | --- | --- | --- | --- | --- |
| CC(C)(OCc1cc(-c2cccc(OC(F)(F)F)c2)n(Cc2ccccc2Cl)n1)C(=O)O [Example 34, 2-([1-[(2-Chlorophenyl)methyl]-5-[3-(trifluoromethoxy)phenyl]1H-pyrazol-3-yl]methoxy)-2-methylpropanoic acid] | > 11000 nM | – | – | – | – | – | – | – | – |
| CC(C)(OCc1cc(-c2cccc(CN3CCOCC3)c2)n(Cc2ccccc2Cl)n1)C(=O)O [Example 40, 2-([1-[(2-Chlorophenyl)methyl]-5-[3-(morpholinomethyl)phenyl]1H-pyrazol-3-yl]methoxy)-2-methylpropanoic acid] | > 100000 nM | – | – | – | – | – | – | – | – |
| Cc1ccccc1-n1nc(COC(C)(C)C(=O)O)cc1-c1cccc(OC2CCC2)c1 [Example 161, 2-([5-(3-Cyclobutoxyphenyl)-1-(2-methylphenyl)-1H-pyrazol-3-yl]-methoxy)-2-methylpropanoic acid] | – | 80% | 61% | 99% | ∞ | 82% | – | ≤10 mg/kg | ≤10 mg/kg |
| CC(C)(OCc1cc(-c2cccc(OC3CCC3)c2)n(-c2ccccc2Cl)n1)C(=O)O [Example 175, 2-([1-(2-Chlorophenyl)-5-(3-cyclo-butoxyphenyl)-1H-pyrazol-3-yl]-methoxy)-2-methylpropanoic acid] | – | 87% | 48% | 94% | – | 83% | – | >10 mg/kg | >10 mg/kg |
| COc1cc(OC)cc(-c2cc(COC(C)(C)C(=O)O)nn2-c2ccccc2Cl)c1 [Example 179, 2-([1-(2-Chlorophenyl)-5-(3,5-dimethoxyphenyl)-1H-pyrazol-3-yl]-methoxy)-2-methylpropanoic acid] | – | 85% | 76% | 98% | ∞ | 93% | – | ≤10 mg/kg | ≤10 mg/kg |
| CCOc1ccccc1Cn1nc(COC(C)(C)C(=O)O)cc1-c1ccc2cnn(CC)c2c1 [Example 198, 2-([1-[(2-Ethoxyphenyl)methyl]-5-(1-ethyl-1H-indazol-6-yl)-1H-pyrazol-3-yl]methoxy)-2-methylpropanoic acid] | – | 82% | – | 84% | – | 80% | – | – | – |
| CC[C@@](C)(OCc1cc(-c2cc(OC)cc(OC)c2)n(-c2ccccc2Cl)n1)C(=O)O [Example 222, (2R)-2-([1-(2-Chlorophenyl)-5-(3,5-dimethoxyphenyl)-1H-pyrazol-3-yl]-methoxy)-2-methylbutanoic acid] | – | 90% | – | 94% | – | 110% | ∞ | – | – |
| CCOc1cccc(-n2nc(COC(C)(C)C(=O)O)cc2-c2cc(OC)cc(OC)c2)c1 [Example 243, 2-([5-(3,5-Dimethoxyphenyl)-1-(3-ethoxyphenyl)-1H-pyrazol-3-yl]-methoxy)-2-methylpropanoic acid] | – | 88% | – | 97% | – | 88% | – | – | – |
| CCCn1ncc2ccc(-c3cc(COC(C)(C)C(=O)O)nn3-c3ccccc3N3CCC3)cc21 [Example 246, 2-([1-[2-(Azetidin-1-yl)phenyl]-5-(1-propyl-1H-indazol-6-yl)-1H-pyrazol-3-yl]methoxy)-2-methylpropanoic acid] | – | 69% | 52% | 81% | – | 65% | – | – | – |

Second part, led by results:

| IC50 (MCT1) | Rat microsome % 60 min [1] | bioavailability [2] | Mouse microsome % 60 min [4] | Mouse microsome t1/2, min [4] | Human microsome % 60 min [5] | Human microsome t1/2, min ([5]; in vitro t1/2) | SMILES | Difference in Weight Bearing, Minimal Efficacious Dose (CFA-induced arthritis [3]) | Mechanical Allodynia (Von Frey), Minimal Efficacious Dose (CFA-induced arthritis [6]) |
| --- | --- | --- | --- | --- | --- | --- | --- | --- | --- |
| > 100000 nM | – | – | – | – | – | – | CC(C)(OCc1cc(-c2ccsc2)n(Cc2ccccc2Cl)n1)C(=O)O [Example 24, 2-([1-[(2-Chlorophenyl)methyl]-5-(thien-3-yl)1H-pyrazol-3-yl]methoxy)-2-methylpropanoic acid] | – | – |
| – | 98% | 49% | – | ∞ | 88% | – | CCOc1cc(OCC)cc(-c2cc(COC(C)(C)C(=O)O)nn2-c2ccccc2Cl)c1 [Example 180, 2-([1-(2-Chlorophenyl)-5-(3,5-diethoxy-phenyl)-1H-pyrazol-3-yl]methoxy)-2-methylpropanoic acid] | >10 mg/kg | >10 mg/kg |
| – | 94% | 97% | 97% | – | 98% | – | Cn1ncc2cccc(-n3nc(COC(C)(C)C(=O)O)cc3-c3cccc(OC4CC4)c3)c21 [Example 191, 2-([5-(3-Cyclopropoxyphenyl)-1-(1-methyl-1H-indazol-7-yl)-1H-pyrazol-3-yl]methoxy)-2-methylpropanoic acid] | >10 mg/kg | >10 mg/kg |
| – | 39% | – | 58% | – | 58% | – | CCOc1ccccc1Cn1nc(COC(C)(C)C(=O)O)cc1-c1cccc(OC2CC2)c1 [Example 201, 2-([5-(3-Cyclopropoxyphenyl)-1-[(2-ethoxyphenyl)methyl]-1H-pyrazol-3-yl]-methoxy)-2-methylpropanoic acid] | – | – |
| – | 2% | – | 32% | – | 32% | – | CC(C)(OCc1cc(-c2cccc(OC3CC3)c2)n(Cc2ccccc2N2CCCC2)n1)C(=O)O [Example 202, 2-([5-(3-Cyclopropoxyphenyl)-1-[[2-(pyrrolidin-1-yl)phenyl]methyl]-1H-pyrazol-3-yl]methoxy)-2-methylpropanoic acid] | – | – |
| – | 33% | – | 34% | – | 56% | – | CC(C)(OCc1cc(-c2cccc(OC3CC3)c2)n(-c2ccccc2N2CCCC2)n1)C(=O)O [Example 221, 2-([5-(3-Cyclopropoxyphenyl)-1-[2-(pyrrolidin-1-yl)phenyl]-1H-pyrazol-3-yl]methoxy)-2-methylpropanoic acid] | – | – |
| – | 73% | 53% | 98% | – | 91% | – | COc1cc(OC)cc(-c2cc(COC(C)(C)C(=O)O)nn2Cc2ccccc2Cl)c1 [Example 224, 2-([1-[(2-Chlorophenyl)methyl]-5-(3,5-dimethoxyphenyl)-1H-pyrazol-3-yl]-methoxy)-2-methylpropanoic acid] | ≤10 mg/kg | ≤10 mg/kg |
| – | 88% | – | 95% | – | 95% | – | Cn1ncc2ccc(-c3cc(COC(C)(C)C(=O)O)nn3Cc3ccccc3Cl)cc21 [Example 226, 2-([1-[(2-Chlorophenyl)methyl]-5-(1-methyl-1H-indazol-6-yl)-1H-pyrazol-3-yl]methoxy)-2-methylpropanoic acid] | – | – |
| – | 83% | 98% | 63% | – | 77% | – | COc1cc(OC)cc(-c2cc(COC(C)(C)C(=O)O)nn2-c2ccccc2N2CCC2)c1 [Example 251, 2-((1-(2-(Azelidin-1-yl)phenyl)-5-(3,5-dimethoxyphenyl)-1H-pyrazol-3-yl)methoxy)-2-methylpropanoic acid] | – | – |

— patent US11292767B2, “Heterocyclic inhibitors of MCT4” (Vettore, LLC, priority 2016, dated 2022)
